Values of other authors, collected in article PMC9371267 (PLoS Biology, 2022).

Experiments:
GALRs = conditions: Trp2 replaced with alanine; ref [4]; cited from earlier work
Description: (§1) Activated GPCRs act as nucleotide exchange factors through direct interactions with heterotrimeric G-proteins. The C-terminal helix of mGαqiN fits into a hydrophobic pocket formed by TM 5–7 of GALR2 (Fig 1B). Phe228, Ile235, Asn239, and Tyr243 of mGαqiN form the principal interface with GALR2, and a salt bridge forms between Glu135^ICL2 of GALR2 and Arg32 of mGαqiN (Fig 1B). […] The modeled fra ...

GALR2 = conditions: endogenous ligands; ref [13]; cited from earlier work
Description: as §1

GALR2 vs GALR1 = conditions: GALR2 over GALR1; ref [3]–[5]; cited from earlier work
Description: Its GPCR family receptors (from GALR1 to GALR3) are associated with different disease states and have been used as markers for certain cancer types. […] Agonists for GALR2 are be ...

GALR2 and GALR3 vs GALR1 = conditions: ref [3],[14]; cited from earlier work
Description: Phe264 and Leu266 in ECL3 contact Leu10^P and Trp2^P ...

Trp2^P of galanin with alanine: galanin with Trp2^P replaced with alanine (GATLNSAGYLLGPHAVGNHRSFSDKNGLTS; Galanin; UniProt P22466 33-62, looked up, variant W2A)
binding to GALRs (GALRs): prevents binding to GALRs

galanin-like peptide (APAHRGRGGWTLNSAGYLLGPVLHLPQMGDQDGKRETALEILDLWKAIDGLPYSHPPQPS; Galanin-like peptide; UniProt Q9UBC7 25-84, looked up) [GALP]
activation of GALR2 (GALR2): activate GALR2

galanin^2–11: truncated peptide galanin^2–11
binds to GALR2 more tightly than GALR1 (GALR2 vs GALR1): roughly 500 times | receptor specificity (GALR2 and GALR3 vs GALR1): specificity for GALR2 and GALR3 over GALR1

B1: spexin (peptide, UniProt Q9BT56 27-116, looked up)
Spexin: APQRLLERRNWTPQAMLYLKGAQGRRFISDQSRRKDLSDRPLPERRSPNPQLLTIPEAATILLASLQKSPEDEEKNFDQTRFLEDSLLNW
modifications: Spexin
activation of GALR2 (GALR2): activate GALR2
